{"source": "paper PMC10145814", "about": "(Viruses, 2023)", "biological_target": "T1, PI4KB (Homo sapiens, UniProt Q9UBF8)", "T1 construct": "purified GST-PI4KB (PV5277, Thermo Fisher)", "T1 sequence (Q9UBF8 2-816)": "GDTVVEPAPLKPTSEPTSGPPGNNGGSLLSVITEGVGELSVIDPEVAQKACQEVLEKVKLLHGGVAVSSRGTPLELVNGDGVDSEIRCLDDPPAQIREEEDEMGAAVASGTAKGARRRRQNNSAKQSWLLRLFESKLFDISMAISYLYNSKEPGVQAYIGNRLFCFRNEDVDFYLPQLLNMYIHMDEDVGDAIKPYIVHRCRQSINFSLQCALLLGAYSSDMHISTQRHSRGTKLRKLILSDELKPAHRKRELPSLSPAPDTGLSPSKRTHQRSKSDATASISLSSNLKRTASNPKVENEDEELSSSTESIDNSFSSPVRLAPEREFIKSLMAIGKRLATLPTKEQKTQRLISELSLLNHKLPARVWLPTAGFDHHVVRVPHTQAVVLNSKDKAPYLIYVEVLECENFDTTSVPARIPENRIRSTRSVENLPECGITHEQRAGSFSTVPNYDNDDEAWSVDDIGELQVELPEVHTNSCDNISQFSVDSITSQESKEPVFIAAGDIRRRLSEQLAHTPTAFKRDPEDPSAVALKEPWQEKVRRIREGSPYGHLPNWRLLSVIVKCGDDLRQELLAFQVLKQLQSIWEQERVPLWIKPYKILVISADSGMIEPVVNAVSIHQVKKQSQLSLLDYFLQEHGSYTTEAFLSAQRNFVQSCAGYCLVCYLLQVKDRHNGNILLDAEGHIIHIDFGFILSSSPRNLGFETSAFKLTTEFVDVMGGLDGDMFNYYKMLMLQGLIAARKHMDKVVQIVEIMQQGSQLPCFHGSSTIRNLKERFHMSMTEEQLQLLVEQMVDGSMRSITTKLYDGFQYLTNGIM", "format": "biochemical", "data": [{"smiles": "COc1cc(/C=C/C(=O)OC[C@H]2O[C@H](O[C@]3(COC(=O)/C=C/c4ccc(O)cc4)O[C@H](COC(=O)/C=C/c4ccc(O)cc4)[C@@H](O)[C@@H]3OC(=O)/C=C/c3ccc(O)cc3)[C@H](O)[C@@H](O)[C@@H]2O)ccc1O", "note": "[VCB, vanicoside B]", "values": [{"measurement": "IC50", "result": 5, "unit": "µM"}]}]}
